Each block holds one compound with its values, some of them ahead of it.
Assays:
[1] = Metabolic stability in human liver microsomes assessed as intrinsic clearance; assay type: ADME, Microsome
Hepatitis C virus = assay: Antiviral activity against HCV in human Huh7 cells assessed as luciferase activity; assay type: functional, organism-based, Hepacivirus hominis; conditions: Huh-7
[2] = Inhibition of recombinant full length HCV NS3/4A protease; set-up: species or system Hepacivirus hominis
[3] = Ratio of drug level in liver to plasma in Sprague-Dawley rat at 2 mg/kg, iv after 6 hrs; assay type: ADME, organism-based; set-up: dose 2 mg/kg, route intravenous
[4] = Half life in Sprague-Dawley rat at 10 mg/kg, po; assay type: ADME, organism-based; set-up: dose 10 mg/kg, route oral; conditions: in vivo
[5] = Volume of distribution at steady state in Sprague-Dawley rat at 2 mg/kg, iv; assay type: ADME, organism-based; set-up: dose 2 mg/kg, route intravenous; conditions: in vivo, read-out: Vdss
[6] = Tmax in Sprague-Dawley rat at 10 mg/kg, po; assay type: ADME, organism-based; set-up: dose 10 mg/kg, route oral; conditions: in vivo
[7] = Clearance in Sprague-Dawley rat at 2 mg/kg, iv; assay type: ADME, organism-based; set-up: dose 2 mg/kg, route intravenous; conditions: in vivo
[8] = AUC in Sprague-Dawley rat at 10 mg/kg, po; assay type: ADME, organism-based; set-up: dose 10 mg/kg, route oral; conditions: plasma
[9] = AUC in Sprague-Dawley rat at 2 mg/kg, iv; assay type: ADME, organism-based; set-up: dose 2 mg/kg, route intravenous; conditions: plasma
[10] = Cmax in Sprague-Dawley rat at 10 mg/kg, po; assay type: ADME, organism-based; set-up: dose 10 mg/kg, route oral; conditions: in vivo
[11] = Ratio of drug level in liver to plasma in Sprague-Dawley rat at 10 mg/kg, po after 6 hrs; assay type: ADME, organism-based; set-up: dose 10 mg/kg, route oral
[12] = Oral bioavailability in Sprague-Dawley rat at 10 mg/kg, po; assay type: ADME, organism-based; conditions: in vivo
[13] = Ratio of drug level in liver to plasma in Sprague-Dawley rat at 2 mg/kg, iv after 8 hrs; assay type: ADME, organism-based; set-up: dose 2 mg/kg, route intravenous
[14] = Ratio of drug level in liver to plasma in Sprague-Dawley rat at 10 mg/kg, po after 8 hrs; assay type: ADME, organism-based; set-up: dose 10 mg/kg, route oral
[15] = Bile excretion of compound in rat at 1 mg/kg, iv after 1 hr; assay type: ADME, organism-based; set-up: dose 1 mg/kg, route intravenous; conditions: read-out: Activity
Liver microsomes = assay: Metabolic stability in rat liver microsomes assessed as intrinsic clearance; assay type: ADME, Microsome

Structure (SMILES): C=C[C@@H]1C[C@]1(NC(=O)[C@@H]1C[C@@H](Oc2cc(-c3ccccc3)nc3cc(OC)ccc23)C[C@H]1C(=O)N[C@H](C(=O)N[C@H](C(=O)NC)C1CCCCC1)C(C)(C)C)C(=O)O
Ki [2]: 22 nM

Structure (SMILES): CCc1c(OC)ccc2c(O[C@@H]3C[C@H]4C(=O)N[C@]5(C(=O)NS(=O)(=O)C6CC6)C[C@H]5/C=C\CCCCN(C)C(=O)[C@@H]4C3)cc(-c3nc(C(C)C)cs3)nc12
EC50 (Hepatitis C virus): 66 nM | Ki [2]: 3.1 nM

Structure (SMILES): COc1ccc2c(O[C@@H]3C[C@H]4C(=O)N[C@]5(C(=O)NS(=O)(=O)C6CC6)C[C@H]5/C=C\CCCCN(C)C(=O)[C@@H]4C3)cc(-n3ccc(C(C)C)n3)nc2c1C
half-life [4]: 2.2 h | Kp at 8 h [13]: 23.5 | Vd [5]: 4.6 L/kg | microsomal CLint [1]: < 6 µL/min/mg | EC50 (Hepatitis C virus): 9.7 nM | Tmax [6]: 1.5 h | Ki [2]: 0.16 nM | clearance [7]: 41.7 mL/min/kg | Kp at 8 h [14]: 44 | AUC [8]: 1.3 µM·h | AUC [9]: 1.05 µM·h | Cmax [10]: 310 nM | bioavailability [12]: 25%

Structure (SMILES): COc1ccc2c(O[C@@H]3C[C@H]4C(=O)N[C@]5(C(=O)NS(=O)(=O)C6CC6)C[C@H]5/C=C\CCCCN(C)C(=O)[C@@H]4C3)cc(-c3nc(C(C)C)cs3)nc2c1Cl
microsomal CLint [1]: 9 µL/min/mg | EC50 (Hepatitis C virus): 2.9 nM | Ki [2]: 0.1 nM

Structure (SMILES): COc1ccc2c(O[C@@H]3C[C@H]4C(=O)N[C@]5(C(=O)NS(=O)(=O)C6CC6)C[C@H]5/C=C\CCCCN(C)C(=O)[C@@H]4C3)cc(-c3cccc(C(C)C)n3)nc2c1C
half-life [4]: 5.8 h | Vd [5]: 0.7 L/kg | microsomal CLint [1]: < 6 µL/min/mg | EC50 (Hepatitis C virus): 6.8 nM | Tmax [6]: 2 h | Ki [2]: 0.3 nM | clearance [7]: 23.3 mL/min/kg | AUC [8]: 1.4 µM·h | AUC [9]: 1.36 µM·h | Cmax [10]: 300 nM | bioavailability [12]: 31%

Next, values leading:

microsomal CLint [1]: 15 µL/min/mg | EC50 (Hepatitis C virus): 17 nM | Ki [2]: 1.4 nM
Structure (SMILES): COc1ccc2c(O[C@@H]3C[C@H]4C(=O)N[C@]5(C(=O)NS(=O)(=O)C6CC6)C[C@H]5/C=C\CCCCN(C)C(=O)[C@@H]4C3)cc(-c3csc(NC(C)C)n3)nc2c1

microsomal CLint [1]: 16 µL/min/mg | EC50 (Hepatitis C virus): 17 nM | Ki [2]: 0.84 nM
Structure (SMILES): COc1ccc2c(O[C@@H]3C[C@H]4C(=O)N[C@]5(C(=O)NS(=O)(=O)C6CC6)C[C@H]5/C=C\CCCCN(C)C(=O)[C@@H]4C3)cc(-c3nc(C(C)C)cs3)nc2c1

Kp at 6 h [3]: 63.5 | half-life [4]: 2.8 h | Vd [5]: 0.49 L/kg | microsomal CLint [1]: < 6 µL/min/mg | EC50 (Hepatitis C virus): 7.8 nM | Tmax [6]: 3 h | Ki [2]: 0.36 nM | clearance [7]: 8.42 mL/min/kg | AUC [8]: 2.79 µM·h | AUC [9]: 5.21 µM·h | Cmax [10]: 730 nM | Kp at 6 h [11]: 32 | bioavailability [12]: 11%
Structure (SMILES): COc1ccc2c(O[C@@H]3C[C@H]4C(=O)N[C@]5(C(=O)NS(=O)(=O)C6CC6)C[C@H]5/C=C\CCCCN(C)C(=O)[C@@H]4C3)cc(-c3nc(C(C)C)cs3)nc2c1C [SIMEPREVIR]

microsomal CLint [1]: 38 µL/min/mg | EC50 (Hepatitis C virus): 11 nM | Ki [2]: 0.2 nM
Structure (SMILES): COc1ccc2c(O[C@@H]3C[C@H]4C(=O)N[C@]5(C(=O)NS(=O)(=O)C6CC6)C[C@H]5/C=C\CCCCN(C)C(=O)[C@@H]4C3)cc(-c3nccs3)nc2c1

microsomal CLint [1]: 46 µL/min/mg | EC50 (Hepatitis C virus): 9 nM | dose excreted at 1 h [15]: 95% | clearance (Liver microsomes): 46 µL/min/mg | Ki [2]: 0.41 nM
Structure (SMILES): COc1ccc2c(O[C@@H]3C[C@H]4C(=O)N[C@]5(C(=O)NS(=O)(=O)C6CC6)C[C@H]5/C=C\CCCCN(C)C(=O)[C@@H]4C3)cc(-c3ccccc3)nc2c1

EC50 (Hepatitis C virus): 57 nM | Ki [2]: 0.55 nM
Structure (SMILES): COc1ccc2c(O[C@@H]3C[C@H]4C(=O)N[C@]5(C(=O)NS(=O)(=O)C6CC6)C[C@H]5/C=C\CCCCN(C)C(=O)[C@@H]4C3)cc(-c3nc(C(C)C)cs3)nc2c1F
